In US20160289640A1, “MTOR/STAT3 SIGNAL INHIBITOR-TREATED MESENCHYMAL STEM CELL HAVING IMMUNOMODULATORY ACTIVITY, AND CELL THERAPY COMPOSITION COMPRISING SAME, FOR PREVENTING OR TREATING IMMUNE DISORDERS” (THE CATHOLIC UNIVERSITY OF KOREA INDUSTRY-ACADEMIC …, priority 2013, published 2016):
“Also recorded” adds a separate entry of the source.

Legend:
[1] = system: adipose tissue-derived mesenchymal stem cells; test: Cell migration kit analysis (upper/lower chamber, polycarbonate membrane); format: cell-based, human
Protocol: For the confirmation of cell migration of the mesenchymal stem cells treated with rapamycin (10 ng/mL), the cells were analyzed using a cell migration kit (Chemicon, Temecula, Calif.). That is, a group with CD4+T cells alone, a group treated with CD4+T cells and rapamycin (10 ng/mL), and a group treated with SDF-1 cells and CD4+T cells were added into the lower chamber, respectively, and the mesenchymal stem cells were added into the upper chamber. Then, for the migration of the adipose tissue-derived mesenchymal stem cells added into the upper chamber into the lower chamber, the cells passed through a polycarbonate membrane were stained and their number was observed by counting.

[2] = system: mesenchymal stem cells derived from human adipose tissues; test: Formation of autophagic vacuoles observed under electron microscope; format: cell-based; conditions: 50 μM rapamycin
Protocol: Meanwhile, autophagy has the effects capable of controlling the beneficial or harmful effects of immunity and inflammation, and preventing autoimmunity and inflammatory diseases, and thus the rapamycin-treated mesenchymal stem cells of the present invention, due to their autophagy, can be more effectively used for the immunity and treatment of inflammatory diseases. As such, the present inventors treated the mesenchymal stem cells with 50 μM rapamycin and the degree of formation of autophagic vacuoles was observed under electron microscope.

[3] = system: mesenchymal stem cells; test: Real time PCR of genes associated with immunomodulatory activity in rapamycin-treated mesenchymal stem cells; format: cell-based, human
Protocol: (§1) The mesenchymal stem cells isolated and cultured in <Example 1> were treated with rapamycin, respectively, and the changes in the expression of IDO, IL-10, and TGF-β, which are genes associated with immunomodulatory activity. First, in a condition of 60 mm dish, for the adipose tissue-derived mesenchymal stem cells, the mesenchymal stem cells in the amount of 5 ? 10^5 cells which were treated with 100 nM rapamycin and cultured at 37° C. were used. In particular, the mesenchymal stem cells not treated with rapamycin were used as a control, and the expression level of the genes having immunomodulatory activity in rapamycin-treated mesenchymal stem cells was analyzed using a real time PCR method.

[4] = system: mTOR signaling pathway in human adipose tissue-derived mesenchymal stem cells; test: Western blot analysis of mTOR signaling pathway and autophagy proteins; format: cell-based
Protocol: The present inventors, in furtherance with the result of <6-1>, performed western blot analysis to examine whether mTOR signaling pathway can be controlled by rapamycin, in the rapamycin-treated mesenchymal stem cells. For this purpose, human adipose tissue-derived mesenchymal stem cells were treated with 10 ng/mL rapamycin, and 1 hour later, the cells were lysed and proteins were extracted therefrom. Then, the extracted proteins were subjected to SDS-PAGE electrophoresis, electrically transferred to a nitrocellulose membrane, blocked with 5% skim milk for 1 hour, reacted by attaching primary antibodies to Beclin1, ATG5, ATG7, LC3I, LC3II, Phospho-mTOR, mTOR, Rictor, and Ractor, and then reacted by attaching secondary antibodies thereto, and photosensitized into Kodak X-ray using the Enhanced Chemiluminescence (ECL), and the expression levels of the proteins of these genes were analyzed (FIG. 6c).

[5] = system: adipose tissue-derived mesenchymal stem cells; test: Real-time PCR of autophagy factor markers; format: cell-based, human; conditions: 10 ng/mL rapamycin, 12 hours, vs group not treated
Protocol: The adipose tissue-derived mesenchymal stem cells isolated and cultured in Example 1 were treated with 10 ng/mL rapamycin, and 12 hours later, the cells were collected and the total RNA was obtained therefrom. Then, cDNA Synthesis Kit (Roche, Transcriptor First Strand cDNA Synthesis Kit) was prepared based on the RNA. Then, the expression levels of ATG5, LC3A, and LC3B genes, which are autophagy factor markers, were analyzed via real-time PCR using the thus-synthesized cDNA.

[6] = system: adipose tissue-derived mesenchymal stem cell; test: Real-time PCR of cell migration markers; format: cell-based, human; conditions: 50 nM rapamycin, vs group not treated
Protocol: In order to confirm whether adipose tissue-derived mesenchymal stem cell treated with 50 nM rapamycin can migrate into a lesion area due to their cell migration capability, the present inventors analyzed the expression levels of CCR1, CCR2, CCR3, CCR4, CCR7, CCR9, and CXCR4, which are factors associated with the migration of mesenchymal stem cells, via real-time PCR.

[7] = system: mesenchymal stem cells; test: Flow cytometry of cell phenotype CD markers in rapamycin-treated mesenchymal stem cells; format: cell-based
Protocol: The mesenchymal stem cells isolated and cultured in <Example 1> were treated with rapamycin, respectively, and the phenotypes of the mesenchymal stem cells were analyzed. In particular, the mesenchymal stem cells not treated with rapamycin were used as a control, and the expression level of cell markers in the rapamycin-treated mesenchymal stem cells were analyzed via flow cytometry.

[8] = system: adipose tissue-derived mesenchymal stem cells; test: Real time PCR of inflammatory factors and tumor factors in rapamycin-treated mesenchymal stem cells; format: cell-based; conditions: 100 nM rapamycin, vs group not treated
Protocol: as §1, with “High-mobility group protein B1 (HMGB-1), IL-6,” for “IDO, IL-10,”, “IL-1β,” for “TGF-β,”, “inflammatory factors and tumor factors.” for “immunomodulatory activity.”

[9] = system: mesenchymal stem cells derived from human adipose tissue; test: Fluorescence microscope analysis of IL-10 and IDO expression in rapamycin-treated mesenchymal stem cells; format: cell-based; conditions: FIG. 1b
[10] = 100 nM rapamycin, 5x10^5 cells, 37° C., real time PCR, vs group not treated
[11] = 10 ng/mL rapamycin, 1 hour, western blot

With `CO/C1=C\C(C)=C\[C@@H](C)[C@@H](O)[C@@H](C)C/C(C)=C/C=C/[C@H](OC)[C@@H]([C@@H](C)[C@@H](O)[C@H](C)[C@@]2(O)C[C@@H](O)[C@H](C)[C@@H](C(C)C)O2)OC1=O` [bafilomycin] as the compound, how does the “cell migration capability of the rapamycin-treated mesenchymal stem cells” value ([1]; after treatment with bafilomycin) read?
Its value is “reduced”.

Which results are given for `CO[C@H]1C[C@@H]2CC[C@@H](C)[C@@](O)(O2)C(=O)C(=O)N2CCCC[C@H]2C(=O)O[C@H]([C@H](C)C[C@@H]2CC[C@@H](O)[C@H](OC)C2)CC(=O)[C@H](C)/C=C(\C)[C@@H](O)[C@@H](OC)C(=O)[C@H](C)C[C@H](C)/C=C/C=C/C=C/1C` [rapamycin, (3S,6R,7E,9R,10R,12R,14S,15E,17E,19E,21S,23S,26R,27R,34aS)-9,10,12,13,14,21,22,23,24,25,26,27,32,33,34,34a-hexadecahydro-9,27-dihydroxy-3-[(1R)-2-[(1S,3R,4R)-4-hydroxy-3-methoxycyclohexyl]-1-methylethyl]-10,21-dimethoxy-6,8,12,14,20,26-hexamethyl-23,27-epoxy-3H-pyrido [2,1-c][1,4]-oxaazacyclohentriacontine-1,5,11,28,29 (4H,6H,31H)-pentone]?
number of autophagic vacuoles [2]: increase; increase in the expression of IDO [3, 10]: ~5 fold; increase in the expression of IL-10 [3, 10]: ~5 fold; increase in the expression of TGF-β [3, 10]: ~5 fold; increase in TGF-β expression ([3]; rapamycin-treated mesenchymal stem cells derived from adipose tissue vs not treated with rapamycin): ~30 fold; migration of mesenchymal stem cells ([1]; CD4+T cells and rapamycin (10 ng/mL), vs mesenchymal stem cells not treated with anything): greater migration; expression level of ATG5 protein [4, 11]: increase; expression level of ATG7 protein [4, 11]: increase; expression level of Beclin1 protein [4, 11]: increase; expression level of LC3I protein [4, 11]: increase; expression level of LC3II protein [4, 11]: increase; mTOR activation (phosphorylation) [4, 11]: inhibited; also recorded: reduced; expression of Ractor ([4]; rapamycin treatment): decreased; expression of Rictor ([4]; rapamycin treatment): decreased; expression level of ATG5 gene [5]: significant increase; expression level of LC3A gene [5]: significant increase; expression level of LC3B gene [5]: significant increase; increase in the expression of CCR1 [6]: ~115 fold; increase in the expression of CCR2 [6]: ~25 fold; increase in the expression of CCR3 [6]: ~70 fold; increase in the expression of CCR4 [6]: ~32 fold; increase in the expression of CCR7 [6]: ~200 fold; increase in the expression of CCR9 [6]: ~150 fold; increase in the expression of CXCR4 [6]: ~60 fold; expression of CD45 (negative marker) [7]: negative; expression of HLA-DR (negative marker) [7]: negative; expression of HMGB-1 [8]: significant decrease; expression of IL-1β [8]: significant decrease; expression of IL-6 [8]: significant decrease; expression level of IL-10 cytokine [9]: significantly increased
